Measured values published in ChEMBL document CHEMBL1201862, “PubChem BioAssay data set” (2004).
Activity calls are given as the source filed them.

How the values were obtained:
[1] = target: T1, Alkaline phosphatase, tissue-nonspecific isozyme (Homo sapiens, UniProt P05186)
T1 sequence (P05186 whole entry): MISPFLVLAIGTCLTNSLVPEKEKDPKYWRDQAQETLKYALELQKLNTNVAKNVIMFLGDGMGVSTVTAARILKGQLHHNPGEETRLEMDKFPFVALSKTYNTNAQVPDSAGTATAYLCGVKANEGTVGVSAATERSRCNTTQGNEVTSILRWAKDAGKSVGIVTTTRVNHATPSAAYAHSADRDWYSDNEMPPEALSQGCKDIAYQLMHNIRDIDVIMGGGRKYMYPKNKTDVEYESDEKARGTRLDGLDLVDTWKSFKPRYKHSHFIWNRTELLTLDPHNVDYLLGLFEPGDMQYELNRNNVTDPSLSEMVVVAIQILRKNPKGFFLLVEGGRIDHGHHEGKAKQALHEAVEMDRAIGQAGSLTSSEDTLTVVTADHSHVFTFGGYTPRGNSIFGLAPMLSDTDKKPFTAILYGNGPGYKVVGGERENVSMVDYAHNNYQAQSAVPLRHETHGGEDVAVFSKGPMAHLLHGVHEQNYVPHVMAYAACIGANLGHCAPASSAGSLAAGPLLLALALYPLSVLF

[2] = NIH-3T3 fibroblast cytotoxicity, dose response, cytotoxicity control, cell-based, fluorescence, Alamar Blue, secondary assay (AID 2327); type: functional;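 note: NIH-3T3 mouse fibroblasts cultured with fluconazole at 8 µg/mL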
[3] = C. albicans growth with fluconazole, confirmation, fluorescence, retest (AID 2467); type: functional, cell-based
[4] = target: T2, Sphingosine 1-phosphate receptor 4 (Homo sapiens, UniProt O95977); test: Fluorescence dose response cell-based high throughput screening assay for antagonists of the Sphingosine 1-Phosphate Receptor 4 (S1P4). [Related pubchem assays: 1524 (Confirmation in triplicates.), 1510 (Primary screen.)]; type: functional
T2 sequence (O95977 whole entry): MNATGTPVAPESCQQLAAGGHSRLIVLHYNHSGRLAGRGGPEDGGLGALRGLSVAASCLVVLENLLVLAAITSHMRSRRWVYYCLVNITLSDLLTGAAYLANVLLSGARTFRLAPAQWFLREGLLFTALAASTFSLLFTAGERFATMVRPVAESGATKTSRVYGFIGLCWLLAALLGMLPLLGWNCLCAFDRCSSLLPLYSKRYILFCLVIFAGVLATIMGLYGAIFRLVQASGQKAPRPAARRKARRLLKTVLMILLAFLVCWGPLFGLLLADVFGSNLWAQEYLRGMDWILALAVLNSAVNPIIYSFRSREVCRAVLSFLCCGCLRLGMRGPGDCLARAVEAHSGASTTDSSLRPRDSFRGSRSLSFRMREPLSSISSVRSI

[5] = target: Sphingosine 1-phosphate receptor 1 (Homo sapiens, UniProt P21453); type: functional;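 note: Tango beta-arrestin reporter U2OS cells stimulated with S1P near its EC80; inhibitor potency meaning antagonism of receptor activation by the natural agonist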
[6] = target: T3, Heat shock factor protein 1 (Mus musculus, UniProt P38532); test: HSF1 potentiators in luciferase reporter cells, confirmation, cell-based, NIH3T3, luminescence, dose retest (AID 435004); type: functional;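 note: stress induced by proteasome inhibitor MG132 added 30 min after compound; luciferase reporter driven by HSF1 response element in NIH3T3 cells; actives raise luminescence as potentiators of the MG132 stress response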
T3 sequence (P38532 whole entry): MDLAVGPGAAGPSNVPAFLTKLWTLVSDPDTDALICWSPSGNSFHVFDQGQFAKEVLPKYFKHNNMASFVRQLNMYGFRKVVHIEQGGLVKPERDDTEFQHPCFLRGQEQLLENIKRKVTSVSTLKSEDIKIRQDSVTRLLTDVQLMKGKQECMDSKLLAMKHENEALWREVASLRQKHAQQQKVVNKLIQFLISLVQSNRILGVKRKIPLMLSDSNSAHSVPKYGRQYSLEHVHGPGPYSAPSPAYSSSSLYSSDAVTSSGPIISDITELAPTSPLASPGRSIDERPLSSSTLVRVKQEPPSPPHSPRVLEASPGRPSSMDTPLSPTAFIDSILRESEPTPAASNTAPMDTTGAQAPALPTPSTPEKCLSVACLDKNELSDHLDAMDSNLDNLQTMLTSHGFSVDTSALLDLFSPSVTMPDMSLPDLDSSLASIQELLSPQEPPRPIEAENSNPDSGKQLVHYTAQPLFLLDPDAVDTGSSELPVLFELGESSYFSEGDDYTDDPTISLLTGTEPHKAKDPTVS

[7] = target: T4, Replicative DNA helicase DnaB (Mycobacterium tuberculosis, UniProt P9WMR3); test: DnaB intein splicing inhibitors, dose response, biochemical, cell-free fluorescence (AID 449749); type: functional
T4 sequence (P9WMR3 whole entry): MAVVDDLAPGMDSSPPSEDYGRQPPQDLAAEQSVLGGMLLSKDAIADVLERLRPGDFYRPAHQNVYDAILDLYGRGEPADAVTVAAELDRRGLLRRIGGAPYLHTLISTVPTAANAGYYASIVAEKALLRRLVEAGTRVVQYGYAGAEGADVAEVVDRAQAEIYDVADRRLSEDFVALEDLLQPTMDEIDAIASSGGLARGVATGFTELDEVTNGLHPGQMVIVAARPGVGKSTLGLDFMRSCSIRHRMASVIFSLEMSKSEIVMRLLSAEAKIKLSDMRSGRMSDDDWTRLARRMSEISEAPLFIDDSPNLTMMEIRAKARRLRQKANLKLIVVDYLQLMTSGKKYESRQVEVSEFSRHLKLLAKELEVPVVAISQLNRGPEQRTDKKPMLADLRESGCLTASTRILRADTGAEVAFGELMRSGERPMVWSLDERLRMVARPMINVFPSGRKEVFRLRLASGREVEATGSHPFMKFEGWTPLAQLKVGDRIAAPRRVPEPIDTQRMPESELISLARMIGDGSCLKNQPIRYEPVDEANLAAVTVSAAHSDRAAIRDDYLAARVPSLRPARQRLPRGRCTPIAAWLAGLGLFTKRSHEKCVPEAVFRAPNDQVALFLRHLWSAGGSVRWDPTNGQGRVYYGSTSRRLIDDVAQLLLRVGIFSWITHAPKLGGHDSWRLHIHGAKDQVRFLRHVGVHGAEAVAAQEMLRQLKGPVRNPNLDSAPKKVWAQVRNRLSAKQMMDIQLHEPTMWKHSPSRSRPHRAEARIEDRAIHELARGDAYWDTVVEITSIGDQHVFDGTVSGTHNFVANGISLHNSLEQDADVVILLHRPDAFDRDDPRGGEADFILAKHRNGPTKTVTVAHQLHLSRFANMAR

[8] = target: T5, Protein RecA (Mycobacterium tuberculosis, UniProt P9WHJ3); test: Fluorescence Cell-Free Homogeneous Dose Retest to Identify Inhibitors of RecA-Intein Splicing Activity. [Related pubchem assays (depositor defined):AID2097, AID2223, AID489010, AID492950]; type: functional
T5 sequence (P9WHJ3 whole entry): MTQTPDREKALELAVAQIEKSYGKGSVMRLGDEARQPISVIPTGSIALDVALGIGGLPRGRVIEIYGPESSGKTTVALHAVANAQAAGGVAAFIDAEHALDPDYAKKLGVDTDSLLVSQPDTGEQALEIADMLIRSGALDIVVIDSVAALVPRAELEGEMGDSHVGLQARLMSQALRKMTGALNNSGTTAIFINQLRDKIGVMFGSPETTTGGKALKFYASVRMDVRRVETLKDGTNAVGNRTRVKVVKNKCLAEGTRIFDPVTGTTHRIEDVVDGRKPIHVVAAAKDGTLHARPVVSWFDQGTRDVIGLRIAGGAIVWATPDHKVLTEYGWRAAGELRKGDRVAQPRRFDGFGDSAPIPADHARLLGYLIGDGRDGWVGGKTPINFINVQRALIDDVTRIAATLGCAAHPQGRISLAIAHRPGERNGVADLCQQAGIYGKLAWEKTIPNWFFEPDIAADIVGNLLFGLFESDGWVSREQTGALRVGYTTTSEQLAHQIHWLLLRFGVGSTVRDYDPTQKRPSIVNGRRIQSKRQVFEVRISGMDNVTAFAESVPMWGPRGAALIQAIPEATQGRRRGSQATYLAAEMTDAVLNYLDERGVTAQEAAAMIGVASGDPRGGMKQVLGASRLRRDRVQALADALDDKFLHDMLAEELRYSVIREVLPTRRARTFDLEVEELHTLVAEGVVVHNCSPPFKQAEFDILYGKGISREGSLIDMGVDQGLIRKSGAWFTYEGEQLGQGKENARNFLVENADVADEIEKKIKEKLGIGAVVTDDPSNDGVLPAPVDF

[9] = target: Aspartyl aminopeptidase (Plasmodium falciparum 3D7, UniProt Q8I2J3)
[10] = target: Procathepsin L (Homo sapiens, UniProt P07711)
[11] = target: Aminopeptidase N (Plasmodium falciparum FcB1/Columbia, UniProt O96935); test: P. falciparum M1AAP inhibitors, biochemical, fluorogenic H-Leu-NHMec substrate, 1536-well (AID 1445); set-up: species or system Plasmodium falciparum 3D7, 3D7
[12] = target: Nonstructural protein 1 (Influenza A virus, UniProt Q194T2); type: functional, Influenza A virus (A/California/07/2009(H1N1))
[13] = target: T6, Carboxy-terminal domain RNA polymerase II polypeptide A small phosphatase 1 (Homo sapiens, UniProt Q9GZU7); test: inhibitors of CTDSP1, concentration-response testing, biochemical assay, absorbance-based, actives from ultra-high-throughput screening (AID 540297); type: functional
T6 sequence (Q9GZU7 whole entry): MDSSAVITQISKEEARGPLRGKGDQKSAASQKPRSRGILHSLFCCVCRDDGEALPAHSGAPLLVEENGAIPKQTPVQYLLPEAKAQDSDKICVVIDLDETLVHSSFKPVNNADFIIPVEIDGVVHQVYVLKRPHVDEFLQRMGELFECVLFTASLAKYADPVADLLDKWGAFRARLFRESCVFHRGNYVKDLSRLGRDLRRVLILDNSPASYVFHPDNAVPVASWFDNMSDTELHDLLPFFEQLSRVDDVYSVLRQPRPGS

[14] = A cytotoxicity screen of small molecule inhibitors of the PhoP region in Salmonella typhi identified in the primary screen. [Related pubchem assays: 1850, 1864, 1985 ]; type: functional
[15] = target: T7, Mucolipin-3 (Homo sapiens, UniProt Q8TDD5); test: Dose response cell-based high-throughput screening assay for agonists of the transient receptor potential channel ML3 (TRPML3). [Related pubchem assays: 1526, 1424, 1448 ]; type: functional
T7 sequence (Q8TDD5 whole entry): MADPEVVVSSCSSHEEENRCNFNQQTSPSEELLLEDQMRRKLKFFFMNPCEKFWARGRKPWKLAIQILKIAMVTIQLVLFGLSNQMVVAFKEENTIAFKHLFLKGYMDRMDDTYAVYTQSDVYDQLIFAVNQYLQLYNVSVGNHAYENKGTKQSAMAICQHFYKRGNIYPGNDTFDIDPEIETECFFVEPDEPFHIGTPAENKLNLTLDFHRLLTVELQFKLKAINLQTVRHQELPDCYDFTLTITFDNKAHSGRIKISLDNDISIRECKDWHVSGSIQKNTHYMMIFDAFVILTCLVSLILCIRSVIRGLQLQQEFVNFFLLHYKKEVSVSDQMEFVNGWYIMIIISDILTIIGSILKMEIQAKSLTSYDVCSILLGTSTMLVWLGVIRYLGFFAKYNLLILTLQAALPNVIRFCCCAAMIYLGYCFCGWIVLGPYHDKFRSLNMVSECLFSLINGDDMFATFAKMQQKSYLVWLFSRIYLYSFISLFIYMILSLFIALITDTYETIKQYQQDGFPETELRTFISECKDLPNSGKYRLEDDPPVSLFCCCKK

[16] = target: Ion channel NompC (Danio rerio, UniProt Q7T1G6); test: Fluorescence counterscreen assay for TRPML3 agonists: dose response cell-based high-throughput screening assay to identify agonists of the transient receptor potential channel N1 (TRPN1). [Related pubchem assays: 1526, 1424, 1448 ]; type: functional
[17] = target: Voltage-dependent T-type calcium channel subunit alpha-1H (Homo sapiens, UniProt O95180); type: functional;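 note: channel activity triggered by adding a high calcium stimulation buffer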
[18] = target: Lysosomal acid glucosylceramidase (Homo sapiens, UniProt P04062); test: Dose response cell-based high throughput screening assay to identify enhancers of beta-glucosidase activity. [Related pubchem assays: 784 ]; type: functional
[19] = tested on: Escherichia coli; test: microbe, parasite or virus in culture

Sequence of Lysosomal acid glucosylceramidase (P04062 whole entry): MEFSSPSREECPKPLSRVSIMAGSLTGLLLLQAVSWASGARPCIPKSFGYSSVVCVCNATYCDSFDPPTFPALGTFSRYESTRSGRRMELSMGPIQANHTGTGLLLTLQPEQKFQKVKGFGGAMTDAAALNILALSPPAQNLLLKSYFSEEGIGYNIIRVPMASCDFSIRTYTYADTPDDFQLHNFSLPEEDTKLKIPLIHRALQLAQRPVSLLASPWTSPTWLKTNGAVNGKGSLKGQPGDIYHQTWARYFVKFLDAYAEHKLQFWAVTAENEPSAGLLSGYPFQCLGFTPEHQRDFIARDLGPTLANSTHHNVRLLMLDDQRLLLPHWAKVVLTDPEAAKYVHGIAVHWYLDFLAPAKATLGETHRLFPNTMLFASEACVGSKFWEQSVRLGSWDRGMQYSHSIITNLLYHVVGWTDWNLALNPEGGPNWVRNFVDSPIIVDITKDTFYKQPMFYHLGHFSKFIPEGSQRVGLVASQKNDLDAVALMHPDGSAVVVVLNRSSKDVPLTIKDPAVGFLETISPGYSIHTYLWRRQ
Sequence of Procathepsin L (P07711 whole entry): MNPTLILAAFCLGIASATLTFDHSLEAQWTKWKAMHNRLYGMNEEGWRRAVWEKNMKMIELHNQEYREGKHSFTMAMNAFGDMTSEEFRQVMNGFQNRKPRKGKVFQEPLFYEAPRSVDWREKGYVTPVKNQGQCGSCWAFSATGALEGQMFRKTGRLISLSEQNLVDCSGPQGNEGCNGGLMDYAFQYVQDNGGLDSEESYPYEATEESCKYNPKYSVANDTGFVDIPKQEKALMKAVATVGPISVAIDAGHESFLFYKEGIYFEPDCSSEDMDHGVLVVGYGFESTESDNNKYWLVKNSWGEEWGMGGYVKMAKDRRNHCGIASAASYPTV
Sequence of Aspartyl aminopeptidase (Q8I2J3 whole entry): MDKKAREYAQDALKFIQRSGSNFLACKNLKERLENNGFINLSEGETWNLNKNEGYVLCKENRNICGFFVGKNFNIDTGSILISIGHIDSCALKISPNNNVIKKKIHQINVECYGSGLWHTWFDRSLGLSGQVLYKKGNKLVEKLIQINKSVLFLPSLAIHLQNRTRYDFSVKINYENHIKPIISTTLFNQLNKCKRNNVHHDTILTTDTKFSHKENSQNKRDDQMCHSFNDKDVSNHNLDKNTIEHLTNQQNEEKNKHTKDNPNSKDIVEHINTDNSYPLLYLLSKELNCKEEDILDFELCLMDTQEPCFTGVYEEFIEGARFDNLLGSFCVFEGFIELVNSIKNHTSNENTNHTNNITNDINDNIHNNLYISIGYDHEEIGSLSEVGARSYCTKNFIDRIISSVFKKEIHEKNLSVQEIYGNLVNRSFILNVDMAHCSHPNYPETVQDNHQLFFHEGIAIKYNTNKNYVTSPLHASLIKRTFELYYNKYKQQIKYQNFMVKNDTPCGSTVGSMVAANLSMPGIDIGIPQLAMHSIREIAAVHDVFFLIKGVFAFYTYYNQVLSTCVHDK
Sequence of Ion channel NompC (Q7T1G6 whole entry): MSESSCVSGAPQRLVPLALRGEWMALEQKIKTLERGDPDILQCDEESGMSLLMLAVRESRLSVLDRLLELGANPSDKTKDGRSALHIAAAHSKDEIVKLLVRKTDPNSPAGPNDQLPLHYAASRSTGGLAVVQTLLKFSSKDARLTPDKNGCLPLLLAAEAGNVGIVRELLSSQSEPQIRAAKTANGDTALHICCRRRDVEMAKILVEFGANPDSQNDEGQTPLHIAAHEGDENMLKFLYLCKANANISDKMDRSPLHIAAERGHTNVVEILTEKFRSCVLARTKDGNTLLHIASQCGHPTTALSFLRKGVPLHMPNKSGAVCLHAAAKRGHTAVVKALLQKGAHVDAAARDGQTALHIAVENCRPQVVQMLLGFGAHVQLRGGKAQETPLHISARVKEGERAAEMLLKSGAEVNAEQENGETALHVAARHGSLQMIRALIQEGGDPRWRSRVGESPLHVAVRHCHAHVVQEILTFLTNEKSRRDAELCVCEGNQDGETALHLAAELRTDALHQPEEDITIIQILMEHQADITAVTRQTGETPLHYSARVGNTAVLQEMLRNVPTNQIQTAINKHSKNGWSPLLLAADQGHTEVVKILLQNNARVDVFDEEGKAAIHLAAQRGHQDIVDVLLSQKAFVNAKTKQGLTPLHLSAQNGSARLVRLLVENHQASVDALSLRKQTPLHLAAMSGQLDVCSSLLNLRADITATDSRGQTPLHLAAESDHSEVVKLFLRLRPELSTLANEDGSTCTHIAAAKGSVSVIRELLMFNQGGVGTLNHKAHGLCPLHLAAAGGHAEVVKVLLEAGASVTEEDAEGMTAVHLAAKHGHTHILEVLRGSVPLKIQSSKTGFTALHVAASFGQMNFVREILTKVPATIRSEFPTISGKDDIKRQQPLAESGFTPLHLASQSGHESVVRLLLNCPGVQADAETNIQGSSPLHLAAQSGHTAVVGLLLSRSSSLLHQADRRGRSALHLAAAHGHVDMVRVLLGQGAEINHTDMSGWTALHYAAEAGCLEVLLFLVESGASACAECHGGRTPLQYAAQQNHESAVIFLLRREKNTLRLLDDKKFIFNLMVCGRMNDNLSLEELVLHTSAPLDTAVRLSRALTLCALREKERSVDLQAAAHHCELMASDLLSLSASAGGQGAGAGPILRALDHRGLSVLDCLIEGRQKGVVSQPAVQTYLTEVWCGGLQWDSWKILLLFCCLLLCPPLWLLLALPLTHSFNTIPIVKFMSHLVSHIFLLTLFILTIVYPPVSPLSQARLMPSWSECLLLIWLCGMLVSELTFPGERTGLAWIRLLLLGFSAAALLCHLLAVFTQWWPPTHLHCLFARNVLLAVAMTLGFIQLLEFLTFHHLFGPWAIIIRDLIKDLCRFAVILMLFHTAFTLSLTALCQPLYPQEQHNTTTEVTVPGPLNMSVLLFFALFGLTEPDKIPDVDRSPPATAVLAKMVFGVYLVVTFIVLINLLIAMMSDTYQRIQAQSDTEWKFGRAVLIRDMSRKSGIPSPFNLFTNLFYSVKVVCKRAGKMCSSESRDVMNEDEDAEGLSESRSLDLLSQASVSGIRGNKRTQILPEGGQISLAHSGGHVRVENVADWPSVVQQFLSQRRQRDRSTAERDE
Sequence of Aminopeptidase N (O96935 whole entry): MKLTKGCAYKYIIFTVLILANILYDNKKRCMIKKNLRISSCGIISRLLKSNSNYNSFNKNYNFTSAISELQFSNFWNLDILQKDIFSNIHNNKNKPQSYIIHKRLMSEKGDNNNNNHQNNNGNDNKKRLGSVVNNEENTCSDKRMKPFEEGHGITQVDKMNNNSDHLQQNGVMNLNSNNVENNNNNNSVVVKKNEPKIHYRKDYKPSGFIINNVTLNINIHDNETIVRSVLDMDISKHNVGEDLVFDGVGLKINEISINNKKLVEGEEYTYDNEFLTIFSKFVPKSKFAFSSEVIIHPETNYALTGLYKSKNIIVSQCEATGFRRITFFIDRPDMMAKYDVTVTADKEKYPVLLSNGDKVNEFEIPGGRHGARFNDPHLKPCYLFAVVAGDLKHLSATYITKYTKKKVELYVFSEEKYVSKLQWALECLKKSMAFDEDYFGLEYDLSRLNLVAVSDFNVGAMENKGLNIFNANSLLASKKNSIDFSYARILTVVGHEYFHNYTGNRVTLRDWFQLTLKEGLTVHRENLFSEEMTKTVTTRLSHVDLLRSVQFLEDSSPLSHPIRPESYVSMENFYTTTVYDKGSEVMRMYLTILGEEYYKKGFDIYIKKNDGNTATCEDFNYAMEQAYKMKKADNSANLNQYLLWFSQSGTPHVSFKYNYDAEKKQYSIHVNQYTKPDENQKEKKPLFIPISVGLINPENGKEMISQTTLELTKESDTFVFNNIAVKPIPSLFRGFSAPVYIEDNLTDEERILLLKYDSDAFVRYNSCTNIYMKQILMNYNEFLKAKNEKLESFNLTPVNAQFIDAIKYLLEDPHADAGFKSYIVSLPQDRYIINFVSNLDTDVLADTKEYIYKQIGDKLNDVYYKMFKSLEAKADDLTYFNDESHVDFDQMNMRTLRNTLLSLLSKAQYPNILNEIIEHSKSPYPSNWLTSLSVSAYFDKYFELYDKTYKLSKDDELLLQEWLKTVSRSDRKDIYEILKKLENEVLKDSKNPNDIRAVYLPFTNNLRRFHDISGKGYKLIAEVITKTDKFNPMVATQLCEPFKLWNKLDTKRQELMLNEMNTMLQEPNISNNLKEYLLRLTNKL
Sequence of Nonstructural protein 1 (Q194T2 whole entry, the tested form may be a part): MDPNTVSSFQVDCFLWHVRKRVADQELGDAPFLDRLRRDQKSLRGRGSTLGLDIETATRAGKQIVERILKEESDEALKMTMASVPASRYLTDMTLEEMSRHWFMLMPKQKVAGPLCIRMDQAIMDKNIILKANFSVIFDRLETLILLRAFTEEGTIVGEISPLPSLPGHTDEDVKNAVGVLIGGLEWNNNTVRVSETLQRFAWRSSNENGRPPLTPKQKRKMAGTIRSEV
Sequence of Sphingosine 1-phosphate receptor 1 (P21453 whole entry): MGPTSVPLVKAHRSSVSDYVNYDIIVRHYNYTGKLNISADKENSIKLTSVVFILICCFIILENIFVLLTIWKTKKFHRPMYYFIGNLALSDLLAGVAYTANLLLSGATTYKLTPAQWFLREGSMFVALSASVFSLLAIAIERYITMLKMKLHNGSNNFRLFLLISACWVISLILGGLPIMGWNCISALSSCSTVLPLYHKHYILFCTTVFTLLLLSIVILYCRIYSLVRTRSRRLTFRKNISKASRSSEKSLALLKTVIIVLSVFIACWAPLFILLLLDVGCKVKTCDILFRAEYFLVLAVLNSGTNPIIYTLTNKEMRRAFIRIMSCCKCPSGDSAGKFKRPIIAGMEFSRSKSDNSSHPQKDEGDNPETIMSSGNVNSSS

Structure (SMILES): CCCCN1CC(=O)C(c2nc3ccccc3[nH]2)=C1N
- EC50 [1]: > 100 µM (not active)

Structure (SMILES): COc1cccc(-n2nnnc2S(C)(=O)=O)c1
- EC50 [2]: 3.96 µM (inconclusive)
- EC50 [3]: 1.76 µM (active)
- IC50 [4]: 1.26 µM (active)
- IC50 [5]: 23.6 µM (not active)
- EC50 [6]: 6.59 µM (active)
- AC50 [7]: 3.14 µM (active)
- EC50 [8]: 1.1 µM (active)

Structure (SMILES): COC(=O)CN(n1cnnc1)S(=O)(=O)c1ccc(C)cc1
- IC50 [9]: 0.351 µM (active)
- IC50 [10]: > 59.6 µM (not active)

Structure (SMILES): O=C1Nn2c(nc3c(c2=O)CCC3)/C1=N/Nc1cccc(Cl)c1
- IC50 [11]: 83.9 µM (active)
- IC50 [12]: > 100 µM (active)
- IC50 [13]: 6.15 µM (active)

Structure (SMILES): O=C(/C=C(\O)c1ccccc1)C(=O)NNC(=O)c1ccccc1
- EC50 [14]: > 50 µM (active)

Structure (SMILES): Cc1ccc(S(=O)(=O)c2c(C)cc(C)nc2Oc2cccc(C(F)(F)F)c2)cc1
- EC50 [15]: 5.23 µM (active)
- EC50 [16]: > 29.9 µM (not active)
- EC50 [17]: 7.06 µM (active)

Structure (SMILES): COCCn1c(N/N=C(C)/C=C/c2ccccc2)nc2c1c(=O)[nH]c(=O)n2C
- EC50 [1]: > 100 µM (not active)

Structure (SMILES): CCCCOc1nc2ccccc2nc1C(C#N)S(=O)(=O)c1ccccc1 (stereo unspecified)
- EC50 [18]: > 50 µM (not active)

Structure (SMILES): COc1ccc(S(=O)(=O)C(C#N)c2nc3ccccc3nc2N2CCCCC2)cc1 (stereo unspecified)
- EC50 [18]: > 50 µM (not active)

Structure (SMILES): O=c1[nH]c(CSc2nnc[nH]2)nc2ccccc12
- IC50 [9]: 0.833 µM (active)
- IC50 [10]: > 59.6 µM (not active)

Structure (SMILES): COc1ccc(S(=O)(=O)N2CCCCCC2)cc1N(C)S(=O)(=O)c1ccc(C)cc1
- EC50 [15]: 6.7 µM (active)
- EC50 [16]: > 29.9 µM (not active)

Structure (SMILES): CCn1cc(C(=O)O)c(=O)c2cc(F)c(N3CCNCC3)cc21 [NORFLOXACIN]
- EC50 [14]: > 50 µM (active)
- AC50 [19]: 1.33 µM (active)
